In patent US12552800B2, “Compounds for diagnosis” (AC IMMUNE SA, priority 2020, dated 2026):

Molecular target: T1, PD brain-derived a-syn aggregates (Homo sapiens, UniProt P37840)
T1 construct: from tissue; host or cells: human PD donor brain, sarkosyl-insoluble 100,000 x g pellet
Experiment: Micro-radiobinding competition assay against Example-1 [^3H-1] (Table 8)
Format: binding
Conditions: for Competition at 100 nM (%): 100 nM non-radiolabelled example compound vs Example-1 [^3H-1] ligand; for Competition at 100 nM (%) / Competition at 1 μM (%): human PD brain-derived a-syn aggregates; for Competition at 1 μM (%): 1 μM non-radiolabelled example compound vs Example-1 [^3H-1] ligand
Protocol: PD brain-derived a-syn aggregates were spotted onto microarray slides. The slides were incubated with the Example-1 [^3H-1] at 6 nM or 20 nM and the example compounds (non-radiolabelled) at 1 μM and 100 nM. In some cases, the non-radiolabelled example compounds were further assessed for a range of different concentrations, varying from 0.05 nM to 2 μM. After incubation, slides were washed and scanned by a real-time autoradiography system (BeaQuant, ai4R). Quantification of the signal was performed by using the Beamage image analysis software (ai4R). […] All measurements were performed with at least two technical replicates. For compounds tested in more than one experiment, the mean of the replicates or K; values in independent experiments is reported.
Results: Example compounds were assessed for their potency to compete with the binding of Example-1 [^3H-1] ligand to PD patient brain-derived a-syn aggregates. Results of the micro-radiobinding competition assay for the example compounds tested are shown in Table 8 as: % competition at 1 μM and 100 nM.

| SMILES | Competition at 100 nM (%) | Competition at 1 μM (%) | Ki (mean of Ki values in independent experiments using PD brain-derived homogenates from two different donors) [nM] |
| --- | --- | --- | --- |
| N#Cc1cccc(N2Cc3nn(-c4ccc(N5CC[C@@H](F)C5)nc4)cc3C2=O)n1 [Example 79] | 74 | – | – |
| Cc1ccnc(N2Cc3nn(-c4ccc(N5CC[C@H](F)C5)nc4)cc3C2=O)c1 [Example 82] | 84 | – | – |
| Cc1cccc(N2Cc3nn(-c4ccc(N5CC[C@H](F)C5)nc4)cc3C2=O)n1 [Example 83] | 47 | – | – |
| N#Cc1cccc(N2Cc3nn(-c4ccc(N5CC[C@H](F)C5)nc4)cc3C2=O)n1 [Example 84] | 14 | 38 | – |
| O=C1c2cn(-c3ccc(N4CC[C@@H](F)C4)cc3)nc2CN1c1cccnc1 [Example 85] | 72 | 99 | – |
| N#Cc1ccnc(N2Cc3nn(-c4ccc(N5CC[C@@H](F)C5)nc4)cc3C2=O)c1 [Example 86] | 64 | – | – |
| O=C1c2cn(-c3ccc(N4CC[C@H](F)C4)cc3)nc2CN1c1cccnc1 [Example 87] | 67 | 92 | 15 |
| N#Cc1ccnc(N2Cc3nn(-c4ccc(N5CC[C@H](F)C5)nc4)cc3C2=O)c1 [Example 88] | 75 | – | – |
| O=C1c2cn(-c3ccc(NC4CC(F)C4)nc3)nc2CN1c1ccccn1 (centres unmarked) [Example 89] | 29 | 75 | – |
| O=C1c2cn(-c3ccc(NC4CC(F)C4)nc3)nc2CN1c1ccncc1 (centres unmarked) [Example 90] | 18 | 51 | – |
| O=C1c2cn(-c3ccc(N4CC[C@H](F)C4)nc3)nc2CN1c1cncc(F)c1 [Example 92] | 32 | 73 | – |
| Cc1c2c(nn1-c1ccc(N3CC[C@H](F)C3)nc1)CN(c1ccncc1)C2=O [Example 93] | 12 | 47 | – |
| Cc1c2c(nn1-c1ccc(N3CC[C@@H](F)C3)nc1)CN(c1ccncc1)C2=O [Example 94] | 18 | 70 | – |
| Cc1c2c(nn1-c1ccc(N3CC[C@@H](F)C3)nc1)CN(c1cnn(C)c1)C2=O [Example 96] | 24 | 39 | – |
| O=C1c2cn(-c3ccc(N4CCCC4)nc3)nc2CN1c1cc(F)ccn1 [Example 100] | 78 | – | – |
| Cc1cc(N2Cc3nn(-c4ccc(N5CC[C@@H](F)C5)nc4)cc3C2=O)ccn1 [Example 102] | 59 | 68 | – |
| O=C1c2cn(-c3ccc(N4CCCC4)nc3)nc2CN1c1ncccc1F [Example 103] | 41 | 70 | – |
| Cc1cc(N2Cc3nn(-c4ccc(N5CC[C@H](F)C5)nc4)cc3C2=O)ccn1 [Example 104] | 86 | 98 | – |
| COc1cc(N2Cc3nn(-c4ccc(N5CC[C@H](F)C5)nc4)cc3C2=O)ccn1 [Example 106] | 95 | 100 | – |
| COc1cc(N2Cc3nn(-c4ccc(N5CC[C@@H](F)C5)nc4)cc3C2=O)ccn1 [Example 107] | 92 | 100 | – |

| SMILES | Competition at 100 nM (%) | Competition at 1 μM (%) | Ki (mean of Ki values in independent experiments using PD brain-derived homogenates from two different donors) [nM] |
| --- | --- | --- | --- |
| N#Cc1cncc(N2Cc3nn(-c4ccc(N5CC[C@@H](F)C5)nc4)cc3C2=O)c1 [Example 109] | 67 | – | – |
| Cc1ccc(N2Cc3nn(-c4ccc(N5CC[C@@H](F)C5)nc4)cc3C2=O)nc1 [Example 110] | 75 | 105 | – |
| N#Cc1cc(N2Cc3nn(-c4ccc(N5CC[C@H](F)C5)nc4)cc3C2=O)ccn1 [Example 111] | 82 | 97 | – |
| Cc1ccc(N2Cc3nn(-c4ccc(N5CC[C@H](F)C5)nc4)cc3C2=O)nc1 [Example 112] | 85 | 105 | – |
| N#Cc1cc(N2Cc3nn(-c4ccc(N5CC[C@@H](F)C5)nc4)cc3C2=O)ccn1 [Example 114] | 92 | 99 | – |
| O=C1c2cn(-c3ccc(N4CCCC4)nc3)nc2CN1c1ccc(F)cn1 [Example 115] | 92 | 98 | – |
| Cn1ccc(N2Cc3nn(-c4ccc(N5CC[C@@H](F)C5)nc4)cc3C2=O)n1 [Example 116] | 71 | 97 | – |
| CC(C)n1cc(N2Cc3nn(-c4ccc(N5CC[C@@H](F)C5)nc4)cc3C2=O)cn1 [Example 117] | 17 | 67 | – |
| Cn1ccc(N2Cc3nn(-c4ccc(N5CC[C@H](F)C5)nc4)cc3C2=O)n1 [Example 118] | 61 | 94 | – |
| CC(C)n1cc(N2Cc3nn(-c4ccc(N5CC[C@H](F)C5)nc4)cc3C2=O)cn1 [Example 119] | 12 | 51 | – |
| Cn1cc(N2Cc3nn(-c4ccc(N5CCC[C@@H](F)C5)nc4)cc3C2=O)cn1 [Example 120] | 45 | 83 | – |
| Cn1cc(N2Cc3nn(-c4ccc(N5CCC[C@H](F)C5)nc4)cc3C2=O)cn1 [Example 121] | 40 | 84 | – |
| Cc1cnccc1N1Cc2nn(-c3ccc(N4CC[C@@H](F)C4)nc3)cc2C1=O [Example 122] | 34 | 61 | – |
| Cc1cnccc1N1Cc2nn(-c3ccc(N4CC[C@H](F)C4)nc3)cc2C1=O [Example 123] | 32 | 58 | – |
| Cn1cc(N2Cc3nn(-c4ccc(N5CC(F)C5)nc4)cc3C2=O)cn1 [Example 124] | 61 | 98 | – |
| O=C1c2cn(-c3ccc(N4CC[C@@H](F)C4)nc3)nc2CN1c1ccns1 [Example 125] | 80 | 99 | – |
| O=C1c2cn(-c3ccc(N4CC[C@@H](F)C4)nc3)nc2CN1c1cncs1 [Example 126] | 75 | 83 | – |
| O=C1c2cn(-c3ccc(N4CC[C@H](F)C4)nc3)nc2CN1c1ccns1 [Example 127] | 71 | 86 | – |
| O=C1c2cn(-c3ccc(N4CC[C@H](F)C4)nc3)nc2CN1c1cncs1 [Example 128] | 55 | 85 | – |
| O=C1c2cn(-c3ccc(N4CCCC4)nc3)nc2CN1c1cnn(CCF)c1 [Example 129] | 25 | 74 | – |

| SMILES | Competition at 100 nM (%) | Competition at 1 μM (%) | Ki (mean of Ki values in independent experiments using PD brain-derived homogenates from two different donors) [nM] |
| --- | --- | --- | --- |
| COc1ccc(-n2cc3c(n2)CN(c2cccnc2)C3=O)cn1 [Example 130] | 74 | 85 | – |
| O=C1c2cn(-c3ccc(N4CC[C@@H](F)C4)nc3)nc2CN1c1cnsc1 [Example 131] | 72 | 98 | – |
| O=C1c2cn(-c3ccc(N4CC[C@H](F)C4)nc3)nc2CN1c1cnsc1 [Example 132] | 63 | 93 | – |
| Cn1cnc(N2Cc3nn(-c4ccc(N5CC[C@@H](F)C5)nc4)cc3C2=O)c1 [Example 133] | 59 | – | – |
| O=C1c2cn(-c3ccc(N4CC[C@@H](F)C4)nc3)nc2CN1c1nccs1 [Example 134] | 74 | – | – |
| CN(C)c1ccc(-n2cc3c(n2)CN(c2cccnc2)C3=O)cn1 [Example 135] | 67 | 96 | – |
| O=C1c2cn(-c3ccc(N4CC[C@H](F)C4)nc3)nc2CN1c1nccs1 [Example 136] | 75 | – | – |
| O=C1c2cn(-c3ccc(N4CC[C@@H](F)C4)nc3)nc2CN1c1ncco1 [Example 137] | 35 | 84 | – |
| O=C1c2cn(-c3ccc(F)cn3)nc2CN1c1cccnc1 [Example 138] | 32 | 57 | – |
| O=C1c2cn(-c3ccc(N4CCCC4)nc3)nc2CN1c1cccc(F)n1 [Example 140] | 67 | – | – |
| O=C1c2cn(-c3ccc(N4CCOCC4)nc3)nc2CN1c1cncc(F)n1 [Example 141] | 51 | 66 | – |
| Cc1c2c(nn1-c1ccc(N3CCCC3)nc1)CN(c1cccc(F)n1)C2=O [Example 144] | 49 | 68 | – |
| Cn1ccc(-n2cc3c(n2)CN(c2cccc(F)n2)C3=O)n1 [Example 145] | 46 | 76 | – |
| Cc1c2c(nn1-c1ccc(N3CCCC3)nc1)CN(c1cncc(F)n1)C2=O [Example 146] | 32 | 53 | – |
| COc1ccc(-n2cc3c(n2)CN(c2cncc(F)n2)C3=O)cn1 [Example 147] | 72 | 86 | – |
| Cn1cc(-n2cc3c(n2)CN(c2cncc(F)n2)C3=O)cn1 [Example 149] | – | 53 | – |
| Cn1cc(-n2cc3c(n2)CN(c2cccc(F)n2)C3=O)cn1 [Example 150] | 37 | 46 | – |
| O=C1c2cn(-c3ccc(N4CC[C@@H](F)C4)nc3)nc2CN1c1cccnn1 [Example 152] | 39 | 86 | – |
| CC(C)c1ccc(-n2cc3c(n2)CN(c2cncc(F)n2)C3=O)cn1 [Example 153] | 31 | 57 | – |
